# Reference: patent US20070010671A1, “Novel quinazoline derivatives and methods of treatment related to the use thereof” (priority 2003, published 2007)
# Molecular target: MCH receptor (Homo sapiens, UniProt Q99705)
# Assay: High throughput functional screening FLIPR/FDSS6000: inhibition of MCH-evoked intracellular Ca2+ changes
# Format: cell-based
# Conditions: class by percent of control at 10^-7 M or IC50
# Outline: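 Fluo4 fluorescence (Ex 488 nm, Em 530 nm) tracked MCH-evoked [Ca2+]i transients over 290 s by FLIPR or FDSS. Cells carried a constitutively active, non-endogenous receptor version. Compounds were added 3 min before a 50 nM MCH challenge.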
row,SMILES,class
1,CN(C)c1nc(N[C@H]2CC[C@@H](CNC(=O)Nc3cc(Cl)ccc3Cl)CC2)nc2ccccc12 [compound 427],3 (Class 3: The value of percent of control at 10^−7 M was more than 60% or the value of IC50 was more than 200 nM.)
2,COc1ccc(C(=O)NC(=S)N[C@H]2CC[C@@H](Nc3nc(N(C)C)c4ccccc4n3)CC2)cc1 [compound 321],3 (Class 3: The value of percent of control at 10^−7 M was more than 60% or the value of IC50 was more than 200 nM.)
3,"CN(C)c1nc(N[C@H]2CC[C@@H](NC(=S)Nc3c(Cl)cc(Cl)cc3Cl)CC2)nc2ccccc12 [compound 246, N-(cis-4-{[4-(dimethylamino)quinazolin-2-yl]amino}cyclohexyl)-N′-(2,4,6-trichlorophenyl)thiourea]",1 (Class 1: The value of percent of control at 10^−7 M was less than 40% or the value of IC50 was less than 50 nM.)
4,C=C(C)CNC(=S)NC[C@H]1CC[C@@H](Nc2nc(N(C)C)c3ccccc3n2)CC1 [compound 608],3 (Class 3: The value of percent of control at 10^−7 M was more than 60% or the value of IC50 was more than 200 nM.)
5,Cc1ccc(NC(=S)NC[C@H]2CC[C@@H](Nc3nc(N(C)C)c4ccccc4n3)CC2)c([N+](=O)[O-])c1 [compound 703],3 (Class 3: The value of percent of control at 10^−7 M was more than 60% or the value of IC50 was more than 200 nM.)
6,CCOC(=O)c1c(NC(=S)N[C@H]2CC[C@@H](Nc3nc(N(C)C)c4ccccc4n3)CC2)sc2c1CCCC2 [compound 380],3 (Class 3: The value of percent of control at 10^−7 M was more than 60% or the value of IC50 was more than 200 nM.)
7,"CN(C)c1nc(N[C@H]2CC[C@@H](CNC(=O)Nc3ccc(F)cc3[N+](=O)[O-])CC2)nc2ccccc12 [compound 551, N-[(cis-4-{[4-(dimethylamino)quinazolin-2-yl]amino}cyclohexyl)methyl]-N′-(4-fluoro-2-nitrophenyl)urea]",2 (Class 2: The value of percent of control at 10^−7 M was from 40% to 60% or the value of IC50 was from 50 nM to 200 nM.)
8,COc1cccc(NC(=S)NC[C@H]2CC[C@@H](Nc3nc(N(C)C)c4ccccc4n3)CC2)c1 [compound 652],3 (Class 3: The value of percent of control at 10^−7 M was more than 60% or the value of IC50 was more than 200 nM.)
9,CN(C)c1nc(N[C@H]2CC[C@@H](NC(=S)Nc3ccccc3OC(F)F)CC2)nc2ccccc12 [compound 215],3 (Class 3: The value of percent of control at 10^−7 M was more than 60% or the value of IC50 was more than 200 nM.)
10,Cc1c(Cl)cccc1NC(=O)NC[C@H]1CC[C@@H](Nc2nc(N(C)C)c3ccccc3n2)CC1 [compound 528],1 (Class 1: The value of percent of control at 10^−7 M was less than 40% or the value of IC50 was less than 50 nM.)
11,Cc1ccc(CCNC(=S)N[C@H]2CC[C@@H](Nc3nc(N(C)C)c4ccccc4n3)CC2)cc1 [compound 322],3 (Class 3: The value of percent of control at 10^−7 M was more than 60% or the value of IC50 was more than 200 nM.)
12,CN(C)c1nc(N[C@H]2CC[C@@H](CNC(=S)Nc3ccc(F)c(C(F)(F)F)c3)CC2)nc2ccccc12 [compound 660],3 (Class 3: The value of percent of control at 10^−7 M was more than 60% or the value of IC50 was more than 200 nM.)
13,CCCCOc1ccc(NC(=O)NC[C@H]2CC[C@@H](Nc3nc(N(C)C)c4ccccc4n3)CC2)cc1 [compound 560],3 (Class 3: The value of percent of control at 10^−7 M was more than 60% or the value of IC50 was more than 200 nM.)
14,CCCCCCCCCCc1ccc(NC(=S)N[C@H]2CC[C@@H](Nc3nc(N(C)C)c4ccccc4n3)CC2)cc1 [compound 315],3 (Class 3: The value of percent of control at 10^−7 M was more than 60% or the value of IC50 was more than 200 nM.)
15,CN(C)c1nc(N[C@H]2CC[C@@H](CNC(=O)NCc3ccc(Cl)c(Cl)c3)CC2)nc2ccccc12 [compound 521],3 (Class 3: The value of percent of control at 10^−7 M was more than 60% or the value of IC50 was more than 200 nM.)
16,"CN(C)c1nc(N[C@H]2CC[C@@H](CNC(=O)Nc3cccc(F)c3)CC2)nc2ccccc12 [compound 438, N-[(cis-4-{[4-(dimethylamino)quinazolin-2-yl]amino}cyclohexyl)methyl]-N′-(3-fluorophenyl)urea]",2 (Class 2: The value of percent of control at 10^−7 M was from 40% to 60% or the value of IC50 was from 50 nM to 200 nM.)
17,COC(=O)c1ccc(NC(=S)N[C@H]2CC[C@@H](Nc3nc(N(C)C)c4ccccc4n3)CC2)cc1 [compound 278],2 (Class 2: The value of percent of control at 10^−7 M was from 40% to 60% or the value of IC50 was from 50 nM to 200 nM.)
18,Cc1cccc(C(C)C)c1NC(=S)NC[C@H]1CC[C@@H](Nc2nc(N(C)C)c3ccccc3n2)CC1 [compound 787],1 (Class 1: The value of percent of control at 10^−7 M was less than 40% or the value of IC50 was less than 50 nM.)
19,CN(C)c1nc(N[C@H]2CC[C@@H](NC(=S)NCCc3ccccc3)CC2)nc2ccccc12 [compound 203],3 (Class 3: The value of percent of control at 10^−7 M was more than 60% or the value of IC50 was more than 200 nM.)
20,CN(C)c1nc(N[C@H]2CC[C@@H](NC(=S)Nc3ccccc3C#N)CC2)nc2ccccc12 [compound 299],3 (Class 3: The value of percent of control at 10^−7 M was more than 60% or the value of IC50 was more than 200 nM.)
21,CN(C)c1nc(N[C@H]2CC[C@@H](CNC(=O)Nc3ccc(Cc4ccccc4)cc3)CC2)nc2ccccc12 [compound 540],3 (Class 3: The value of percent of control at 10^−7 M was more than 60% or the value of IC50 was more than 200 nM.)

# Same assay, conditions: class by percent of control at 10^-7 M or by IC50; read-out: class
row,IC50,SMILES
1,> 200 nM,CCCCc1ccc(NC(=S)NC[C@H]2CC[C@@H](Nc3nc(N(C)C)c4ccccc4n3)CC2)c(C)c1 [compound 805]
2,> 200 nM,CC(=O)c1ccc(NC(=O)N[C@H]2CC[C@@H](Nc3nc(N(C)C)c4ccccc4n3)CC2)cc1 [compound 6]
3,< 50 nM,"CN(C)c1nc(N[C@H]2CC[C@@H](NC(=S)Nc3ccc(C#N)cc3)CC2)nc2ccccc12 [compound 160, N-(4-cyanophenyl)-N′-(cis-4-{[4-(dimethylamino)quinazolin-2-yl]amino}cyclohexyl)thiourea]"
4,< 50 nM,"CN(C)c1nc(N[C@H]2CC[C@@H](NC(=O)Nc3ccc(F)cc3F)CC2)nc2ccccc12 [compound 21, N-(2,4-difluorophenyl)-N′-(cis-4-{[4-(dimethylamino)quinazolin-2-yl]amino}cyclohexyl)urea]"
5,> 200 nM,CN(C)c1nc(N[C@H]2CC[C@@H](NC(=O)Nc3c(F)cccc3F)CC2)nc2ccccc12 [compound 25]
6,50 to 200 nM,"CC(C)CNC(=S)N[C@H]1CC[C@@H](Nc2nc(N(C)C)c3ccccc3n2)CC1 [compound 178, N-(cis-4-{[4-(dimethylamino)quinazolin-2-yl]amino}cyclohexyl)-N′-isobutylthiourea]"
7,> 200 nM,CN(C)c1nc(N[C@H]2CC[C@@H](NC(=O)Nc3ccc(F)c([N+](=O)[O-])c3)CC2)nc2ccccc12 [compound 35]

# Same assay, conditions: class by percent of control at 10^−7 M or by IC50; read-out: class
row,IC50,SMILES
1,< 50 nM,"CN(C)c1nc(N[C@H]2CC[C@@H](NC(=O)c3ccc(Oc4ccccc4F)nc3)CC2)nc2ccccc12 [Example 1050, N-(cis-4-{[4-(dimethylamino)quinazolin-2-yl]amino}cyclohexyl)-6-(2-fluorophenoxy)nicotinamide]"
2,> 200 nM,"CN(C)c1nc(N[C@H]2CC[C@@H](CNC(=O)c3cc(C(F)(F)F)ccc3C(F)(F)F)C2)nc2ccccc12 [Example 1126, N-[((1R,3S)-3-{[4-(dimethylamino)quinazolin-2-yl]amino}cyclopentyl)methyl]-2,5-bis(trifluoromethyl)benzamide]"
3,< 50 nM,"CN(C)c1nc(N[C@H]2CC[C@@H](C(=O)NCc3ccc(C(F)(F)F)cc3F)CC2)nc2ccccc12 [Example 1175, cis-4-{[4-(dimethylamino)quinazolin-2-yl]amino}-N-[2-fluoro-4-(trifluoromethyl)benzyl]cyclohexanecarboxamide]"
4,< 50 nM,"COc1ccc(C(O)C(=O)N[C@H]2CC[C@@H](Nc3nc(N(C)C)c4ccccc4n3)CC2)cc1 (relative stereo) [Example 1105, N-(cis-4-{[4-(dimethylamino)quinazolin-2-yl]amino}cyclohexyl)-2-hydroxy-2-(4-methoxyphenyl)acetamide]"
5,> 200 nM,"CN(C)c1nc(N[C@H]2CC[C@@H](NCc3ccc(OC(F)(F)F)cc3)C2)nc2ccccc12 [Example 1047, N4,N4-dimethyl-N2-((1S,3R)-3-{[4-(trifluoromethoxy)benzyl]-amino}cyclopentyl)quinazoline-2,4-diamine]"
6,< 50 nM,"CN(C)c1nc(N[C@H]2CC[C@@H](C(=O)NCc3ccc(F)c(Cl)c3)CC2)nc2ccccc12 [Example 1181, cis-N-(3-chloro-4-fluorobenzyl)-4-{[4-(dimethylamino)quinazolin-2-yl]amino}cyclohexanecarboxamide]"
7,< 50 nM,"CC(NC(=O)[C@H]1CC[C@@H](Nc2nc(N(C)C)c3ccccc3n2)CC1)c1ccc(F)cc1 (relative stereo) [Example 1138, cis-4-{[4-(dimethylamino)quinazolin-2-yl]amino}-N-[1-(4-fluorophenyl)ethyl]cyclohexanecarboxamide]"
8,< 50 nM,"Cc1cccc(OCC(=O)N[C@H]2CC[C@@H](Nc3nc(N(C)C)c4ccccc4n3)CC2)c1 [Example 1079, N-(cis-4-{[4-(dimethylamino)quinazolin-2-yl]amino}cyclohexyl)-2-(3-methylphenoxy)acetamide]"
9,< 50 nM,"CN(C)c1nc(N[C@H]2CC[C@@H](NC(=O)c3cccnc3Oc3ccc(Cl)c(F)c3)CC2)nc2ccccc12 [Example 1042, 2-(4-chloro-3-fluorophenoxy)-N-(cis-4-{[4-(dimethylamino)quinazolin-2-yl]amino}cyclohexyl)nicotinamide]"
10,< 50 nM,"CN(C)c1nc(N[C@H]2CC[C@@H](C(=O)NCc3ccc(Br)cc3)CC2)nc2cc(F)c(F)cc12 [Example 1002, cis-N-(4-bromobenzyl)-4-{[4-(dimethylamino)-6,7-difluoroquinazolin-2-yl]amino}cyclohexanecarboxamide]"
